Assay results from the NIST ThermoML archive (doi:10.1021/je301103d).
± gives the expanded uncertainty stated by the source.

How the values were obtained:
[1] = 101.33 kPa, Liquid; for viscosity: Cone and plate viscometry; for mass density: Vibrating tube method; for electrical conductivity: conductivity meter (DDJS-308A)
[2] = refractive index (Na D-line) (dimensionless); details: 101.33 kPa, Liquid, Standard Abbe refractometry

C[N+](C)(C)CCO.NCC(=O)[O-] [2-hydroxy-N,N,N-trimethylethanaminium glycinate]
Details	electrical conductivity, [1] [S/m]	mass density, [1] [kg/m3]	refractive index, [2]	viscosity, [1] [mPa·s]
293.15 K	–	–	1.5238 ± 0.0011	–
298.15 K	0.00677 ± 0.00021	1145.2 ± 2	1.5224 ± 0.0011	182.3 ± 21
303.15 K	0.0104 ± 0.00031	1142.31 ± 2	1.5213 ± 0.0011	119.9 ± 13
308.15 K	0.0147 ± 0.00044	1139.43 ± 2	1.5204 ± 0.0011	84.3 ± 9.3
313.15 K	0.022 ± 0.00066	1136.7 ± 2	1.5194 ± 0.0011	50.2 ± 5.6
318.15 K	0.0292 ± 0.00088	1133.97 ± 2	1.5182 ± 0.0011	29.4 ± 3.3
323.15 K	0.0388 ± 0.0012	1131.22 ± 2	1.5171 ± 0.0011	19.9 ± 2.2
328.15 K	0.0497 ± 0.0015	1128.46 ± 2	1.5158 ± 0.0011	14.3 ± 1.6
333.15 K	0.0609 ± 0.0018	1125.7 ± 2	1.5148 ± 0.0011	10.4 ± 1.1
338.15 K	0.0781 ± 0.0024	1122.93 ± 2	1.5137 ± 0.0011	7.2 ± 0.8
343.15 K	0.0993 ± 0.003	1120.22 ± 2	1.5125 ± 0.0011	5.5 ± 0.6
348.15 K	0.122 ± 0.0037	1117.53 ± 2	–	4.3 ± 0.5
353.15 K	0.15 ± 0.0045	1114.83 ± 2	–	3.5 ± 0.4

C[C@H](N)C(=O)[O-].C[N+](C)(C)CCO [2-hydroxy-N,N,N-trimethylethanaminium L-alaninate]
Details	electrical conductivity, [1] [S/m]	mass density, [1] [kg/m3]	refractive index, [2]	viscosity, [1] [mPa·s]
293.15 K	–	–	1.5146 ± 0.0011	–
298.15 K	0.00213 ± 7e-05	1112.94 ± 2	1.514 ± 0.0011	385.6 ± 45
303.15 K	0.00577 ± 0.00018	1110.07 ± 2	1.5127 ± 0.0011	234.9 ± 27
308.15 K	0.00907 ± 0.00027	1107.01 ± 2	1.5118 ± 0.0011	136.8 ± 15
313.15 K	0.0126 ± 0.00038	1104.04 ± 2	1.5105 ± 0.0011	89 ± 9.9
318.15 K	0.017 ± 0.00051	1101.21 ± 2	1.5094 ± 0.0011	51.8 ± 5.7
323.15 K	0.0249 ± 0.00075	1098.37 ± 2	1.5084 ± 0.0011	31.5 ± 3.5
328.15 K	0.0309 ± 0.00093	1095.54 ± 2	1.5072 ± 0.0011	21.5 ± 2.4
333.15 K	0.0397 ± 0.0012	1092.69 ± 2	1.506 ± 0.0011	14 ± 1.5
338.15 K	0.0518 ± 0.0016	1089.85 ± 2	1.5052 ± 0.0011	10 ± 1.1
343.15 K	0.0655 ± 0.002	1087.04 ± 2	1.5041 ± 0.0011	7.4 ± 0.8
348.15 K	0.0822 ± 0.0025	1084.27 ± 2	–	5.7 ± 0.6
353.15 K	0.101 ± 0.003	1081.51 ± 2	–	4.4 ± 0.5

C[N+](C)(C)CCO.O=C([O-])[C@@H]1CCCN1 [2-hydroxy-N,N,N-trimethylethanaminium L-prolinate]
Details	electrical conductivity, [1] [S/m]	mass density, [1] [kg/m3]	refractive index, [2]	viscosity, [1] [mPa·s]
293.15 K	–	–	1.5419 ± 0.0011	–
298.15 K	3e-05 ± 1e-05	1121.04 ± 2	1.5408 ± 0.0011	10644 ± 1600
303.15 K	0.00013 ± 1e-05	1118.21 ± 2	1.5402 ± 0.0011	5437.3 ± 770
308.15 K	0.00035 ± 1e-05	1115.35 ± 2	1.539 ± 0.0011	2824.6 ± 380
313.15 K	0.0007 ± 2e-05	1112.49 ± 2	1.5379 ± 0.0011	1515.3 ± 190
318.15 K	0.0013 ± 4e-05	1109.61 ± 2	1.5367 ± 0.0011	839.1 ± 100
323.15 K	0.00204 ± 6e-05	1106.69 ± 2	1.5355 ± 0.0011	463.5 ± 55
328.15 K	0.00291 ± 9e-05	–	1.5344 ± 0.0011	307 ± 36
333.15 K	0.00435 ± 0.00013	1100.61 ± 2	1.5329 ± 0.0011	163.7 ± 18
338.15 K	0.00552 ± 0.00017	1097.81 ± 2	1.5317 ± 0.0011	114 ± 13
343.15 K	0.00649 ± 0.00019	1095.03 ± 2	1.5306 ± 0.0011	70.1 ± 7.8
348.15 K	0.00779 ± 0.00023	1092.12 ± 2	–	46.3 ± 5.1
353.15 K	0.00941 ± 0.00028	1089.39 ± 2	–	33.7 ± 3.7
